The values that follow come from publication PMC11519908, “Luminescent Ln(III)-Metallopeptide Sensors for Monitoring Pseudomonas aeruginosa Elastase B Activity in Complex Biological Media” (ACS Sensors, 2024).

The test system of data set [1] is supernatants from P. aeruginosa mutant strains deficient in LasB (LasB1, LasB2). The settings on record: pH 8.
The subject of data set [2] is supernatants from the LasB-deficient P. aeruginosa mutants. The settings on record: P1[Tb]: 0.5 mM probe, 50 mM CaCl2, HEPES buffer, 9 µL supernatant, RT, 1 h before injection.

In the case of EGLAEW [P1[Tb]], the “change of luminescence over time with LasB-deficient P. aeruginosa supernatants” value in data set [1] is listed as “no changes in the luminescence”. The “integrity of probe with LasB-deficient P. aeruginosa supernatants (HPLC-MS)” value in data set [2] is on record as “remained intact”.
